Test results from US20100167261A1, “PLATELET STABILIZATION” (SIEMENS HEALTHCARE DIAGNOSTICS INC., priority 2006, published 2010).
Where two headings read alike, the source gives them in different places.

Assays:
Type in all cases: cell-based
[1] = test system: platelets; assay: morphometric evaluation of α-granules per platelet and platelet morphology, electron microscopy
Experimental: (§1) Blood from healthy controls were also collected into Vacutainer® K3E 4.5 mL K3EDTA sample collection tubes (Cat. No. 367654, Becton, Dickinson and Company, Franklin Lakes, N.J.) and combined with the remaining STABILE-1 reagents (citrate-phosphate-dextrose, wortmanin, tyrphostin) to yield the prescribed concentrations. […] Mean platelet component and mean platelet volume were assessed at 30 min, 6 hr, and 24 hr following blood collection/initial combination with storage reagents using the ADVIA® 2120 system (Bayer AG, Leverkusen, Germany). Flow cytometry techniques were used to identify platelet activation proteins, and the impact of these strategies on ultrastructural morphology of platelets was morphometrically evaluated using electron microscopy (EM). The values obtained at t=0+30 (i.e., 30 min after blood collection and the initial combination with the storage reagents) were designated as baseline values to which values observed at t=6 hr and t=24 hr were compared.

[2] = test system: platelets; assay: morphometric evaluation of dense bodies per platelet, electron microscopy whole mounts; conditions: * = statistically significant at the 95% confidence level
Text: In accordance with published methods, platelet whole mounts were viewed “by transparence”, i.e., while supported on polyvinal formal resin, and dense bodies were counted.
The plot depicts mean values with 95% LSD intervals.

[3] = test system: platelets; assay: mean platelet component (MPC) of stored blood samples, ADVIA 2120 Hematology System; conditions: for mean platelet component (MPC), Average: Table 1, stored at 22° C.
Experimental: The ADVIA® 120 Hematology System is an automated analyzer that, in addition to measuring the conventional hematologic indices, also provides some activation-related information about platelets. Macey M G et al., Cytometry 38:250-55 (1999). It measures the intensity of light scattered by platelets at two different cone angles (2-3° and 5-15° and from the paired values computes platelet volume (PV) and platelet component (PC) concentration on a cell-by-cell basis. These values are then averaged to provide the Mean Platelet Component (MPC).
(§2) The samples were subjected to gently agitation, and were stored either at room temperature (22° C.) or at 4° C., and mean platelet component and mean platelet volume values were obtained at the designated time points using the ADVIA® 2120 system.
(§3) Blood from healthy controls were also collected into Vacutainer® K3E 4.5 mL K3EDTA sample collection tubes (Cat. No. 367654, Becton, Dickinson and Company, Franklin Lakes, N.J.) and combined with the remaining STABILE-1 reagents (citrate-phosphate-dextrose, wortmanin, tyrphostin) to yield the prescribed concentrations. These samples were stored either at room temperature (22° C.) or at 4° C., and mean platelet component values were obtained at the designated time points using the ADVIA® 2120 system.
as §1
(§4) Blood from healthy controls were carefully collected, and mean platelet component was assessed upon combination of blood with the respective storage reagents, using the ADVIA® 2120 system (Bayer AG, Leverkusen, Germany), and again at 1 hr, 3 hr, 6 hr, and 24 hr following the initial combination with storage reagents. All samples were stored at room temperature (22° C.).
as §4, with “Experiments were conducted in order to assess the effect of varying the concentration of the citrate-phosphate-dextrose component in the STABILE-1 storage medium on the mean platelet component. Blood” for “Blood”

[4] = test system: P-selectin (also known as CD62P); assay: P-selectin expression of stored platelets, flow cytometry; conditions: 22° C., n = 8
Experimental: as §1

[5] = test system: platelets; conditions: for MPV, increase in % vs 30 min baseline: n = 8; for mean platelet volume (MPV), Average: Table 4, stored at 22° C.
Experimental: as §2
as §3, with “volume was assessed” for “values were obtained”
as §1, with “(EM).” for “(EM). The values obtained at t=0+30 (i.e., 30 min after blood collection and the initial combination with the storage reagents) were designated as baseline values to which values observed at t=6 hr and t=24 hr were compared.”

O=C(O)CN(CCN(CC(=O)O)CC(=O)O)CC(=O)O [EDTA, Ethylenediaminetetraacetic acid]
number of α-granules per platelet section ([1]; 6 h): 6.4±2.3
number of α-granules per platelet section ([1]; 24 h): 3.5±1.4
number of α-granules per platelet as compared with t=0 ([1]; FIG. 4A, six hours of storage, 22° C.): statistical reduction
number of α-granules per platelet section ([1]; baseline): 12.3±6.07
Difference, mean number of dense bodies per platelet ([2]; Contrast EDTA 0 hr vs. stored 1 hr): −1.26*
Difference, mean number of dense bodies per platelet ([2]; Contrast EDTA 0 hr vs. stored 24 hr): 2.1*
Difference, mean number of dense bodies per platelet ([2]; Contrast EDTA 1 hr vs. EDTA 6 hr): 1.9*
MPC ([3]; 30 min (baseline), 22° C., n = 8): 259 ± 6.6 g/L
MPC, reduction in % vs 30 min baseline ([3]; 6 hours, 22° C., n = 8): −9%
MPC, reduction in % vs 30 min baseline ([3]; 24 hours, 22° C., n = 8): −21%
mean platelet component (MPC), Average ([3]; 0 min, n 12): 260.83
mean platelet component (MPC), Average ([3]; 30 min, n 15): 258.07
mean platelet component (MPC), Average ([3]; 1 h, n 15): 252.00
mean platelet component (MPC), Average ([3]; 3 h, n 15): 239.07
mean platelet component (MPC), Average ([3]; 6 h, n 15): 229.87
mean platelet component (MPC), Average ([3]; 24 h, n 15): 201.07
mean platelet component ([3]; Table 8, 0, stored at room temperature (22° C.)): 278
mean platelet component ([3]; Table 8, 1 hr, stored at room temperature (22° C.)): 273
mean platelet component ([3]; Table 8, 3 hr, stored at room temperature (22° C.)): 265
mean platelet component ([3]; Table 8, 6 hr, stored at room temperature (22° C.)): 268
mean platelet component ([3]; Table 8, 24 hr, stored at room temperature (22° C.)): 233
mean platelet component ([3]; Table 10, 0, stored at room temperature (22° C.)): 258
mean platelet component ([3]; Table 10, 1 hr, stored at room temperature (22° C.)): 247
mean platelet component ([3]; Table 10, 3 hr, stored at room temperature (22° C.)): 235
mean platelet component ([3]; Table 10, 6 hr, stored at room temperature (22° C.)): 225
mean platelet component ([3]; Table 10, 24 hr, stored at room temperature (22° C.)): 190
mean platelet component ([3]; Table 11, 0, stored at room temperature (22° C.)): 288
mean platelet component ([3]; Table 11, 1 hr, stored at room temperature (22° C.)): 282
mean platelet component ([3]; Table 11, 3 hr, stored at room temperature (22° C.)): 271
mean platelet component ([3]; Table 11, 6 hr, stored at room temperature (22° C.)): 269
mean platelet component ([3]; Table 11, 24 hr, stored at room temperature (22° C.)): 227
decrease in the mean platelet component ([3]; six hours after initial combination (t=0), storage at 22° C., Tables 1 and 2): ~12%
decrease of MPC values ([3]; t=5.5 hr after baseline measurements, room temperature / 22° C.): 9%
P-selectin, % of positive platelets ([4]; 30 min (baseline)): 2.1%
P-selectin, % of positive platelets ([4]; 6 hours): 13.9%
P-selectin, % of positive platelets ([4]; 24 hours): 40.8%
MPV [5]: 8.3 ± 0.2 fL
increase of MPV values ([5]; 5.5 hours after baseline, 22° C.): 10.2%
MPV, increase in % vs 30 min baseline ([5]; 6 hours, 22° C.): +10.2%
MPV, increase in % vs 30 min baseline ([5]; 24 hours, 22° C.): +23%
mean platelet volume (MPV), Average ([5]; 0 min, n 12): 8.36
mean platelet volume (MPV), Average ([5]; 30 min, n 15): 8.41
mean platelet volume (MPV), Average ([5]; 1 h, n 15): 8.65
mean platelet volume (MPV), Average ([5]; 3 h, n 15): 9.22
mean platelet volume (MPV), Average ([5]; 6 h, n 15): 9.53
mean platelet volume (MPV), Average ([5]; 24 h, n 15): 10.63
increase in the mean platelet volume ([5]; six hours after initial combination (t=0), storage at 22° C., Tables 4 and 5): ~12%
